Assay results taken from ChEMBL document CHEMBL1938230, “6-Position optimization of tricyclic 4-quinolone-based inhibitors of glycogen synthase kinase-3β: discovery of nitrile derivatives with picomolar potency” (Bioorg Med Chem Lett, 2012).

Columns and labels:
HL-60 [1] = experiment: Inhibition of human AurA/AurB/AurC in HL-60 cells lysate assessed as reduction of labeling of acyl-phosphate ATP probe at 100 nM
[2] = target: Mitogen-activated protein kinase 7 (Homo sapiens) (UniProt Q13164); experiment: Inhibition of human Erk5 in HL-60 cells lysate assessed as reduction of labeling of acyl-phosphate ATP probe at 100 nM; type: cell-free
[3] = target: T1, Inhibitor of nuclear factor kappa-B kinase subunit beta (Homo sapiens) (UniProt O14920); experiment: Inhibition of human IKK-beta in HL-60 cells lysate assessed as reduction of labelling of acyl-phosphate ATP probe at 100 nM; type: cell-free
T1 sequence (whole entry): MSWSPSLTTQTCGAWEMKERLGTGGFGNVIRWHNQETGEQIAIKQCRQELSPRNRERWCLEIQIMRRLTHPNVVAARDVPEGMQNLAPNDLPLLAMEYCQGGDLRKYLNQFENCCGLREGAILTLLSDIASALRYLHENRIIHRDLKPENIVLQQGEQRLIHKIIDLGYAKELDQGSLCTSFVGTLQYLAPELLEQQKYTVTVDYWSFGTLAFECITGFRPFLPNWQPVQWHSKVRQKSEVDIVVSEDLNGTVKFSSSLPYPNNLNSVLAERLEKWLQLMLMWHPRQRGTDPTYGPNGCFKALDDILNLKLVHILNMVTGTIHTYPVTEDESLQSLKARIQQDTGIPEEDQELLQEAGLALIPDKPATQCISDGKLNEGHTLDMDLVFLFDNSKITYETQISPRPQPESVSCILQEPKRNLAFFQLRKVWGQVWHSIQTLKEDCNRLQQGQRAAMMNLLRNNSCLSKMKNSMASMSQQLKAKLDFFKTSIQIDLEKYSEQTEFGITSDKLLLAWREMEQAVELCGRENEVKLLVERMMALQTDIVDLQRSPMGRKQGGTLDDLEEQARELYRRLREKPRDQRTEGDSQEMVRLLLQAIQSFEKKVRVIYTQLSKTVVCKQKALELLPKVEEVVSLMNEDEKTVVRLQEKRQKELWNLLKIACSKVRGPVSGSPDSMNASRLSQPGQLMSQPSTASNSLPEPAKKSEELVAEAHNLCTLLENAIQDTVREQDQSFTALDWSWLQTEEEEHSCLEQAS

HL-60 [4] = experiment: Inhibition of human MAP3K5/MAP3K6/MAP3K7 in HL-60 cells lysate assessed as reduction of labeling of acyl-phosphate ATP probe at 100 nM
[5] = target: T2, Interleukin-1 receptor-associated kinase 4 (Homo sapiens) (UniProt Q9NWZ3); experiment: Inhibition of human IRAK4 in HL-60 cells lysate assessed as reduction of labeling of acyl-phosphate ATP probe at 100 nM; type: cell-free
T2 sequence (whole entry): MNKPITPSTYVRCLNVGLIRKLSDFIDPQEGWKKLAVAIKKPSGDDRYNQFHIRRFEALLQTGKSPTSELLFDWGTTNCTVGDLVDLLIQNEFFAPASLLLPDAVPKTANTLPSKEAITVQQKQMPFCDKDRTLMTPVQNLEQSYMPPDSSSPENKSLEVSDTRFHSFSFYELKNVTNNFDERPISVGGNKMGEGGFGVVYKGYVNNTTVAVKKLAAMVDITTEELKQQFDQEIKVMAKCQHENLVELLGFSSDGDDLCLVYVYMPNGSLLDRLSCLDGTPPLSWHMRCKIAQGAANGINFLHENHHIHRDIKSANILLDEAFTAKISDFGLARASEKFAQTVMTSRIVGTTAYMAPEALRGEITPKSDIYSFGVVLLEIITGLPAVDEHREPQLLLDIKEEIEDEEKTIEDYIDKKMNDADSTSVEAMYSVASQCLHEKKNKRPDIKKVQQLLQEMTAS

[6] = target: T3, Scaffold protein ILK (Homo sapiens) (UniProt Q13418); experiment: Inhibition of human ILK in HL-60 cells lysate assessed as reduction of labeling of acyl-phosphate ATP probe at 100 nM; type: cell-free
T3 sequence (whole entry): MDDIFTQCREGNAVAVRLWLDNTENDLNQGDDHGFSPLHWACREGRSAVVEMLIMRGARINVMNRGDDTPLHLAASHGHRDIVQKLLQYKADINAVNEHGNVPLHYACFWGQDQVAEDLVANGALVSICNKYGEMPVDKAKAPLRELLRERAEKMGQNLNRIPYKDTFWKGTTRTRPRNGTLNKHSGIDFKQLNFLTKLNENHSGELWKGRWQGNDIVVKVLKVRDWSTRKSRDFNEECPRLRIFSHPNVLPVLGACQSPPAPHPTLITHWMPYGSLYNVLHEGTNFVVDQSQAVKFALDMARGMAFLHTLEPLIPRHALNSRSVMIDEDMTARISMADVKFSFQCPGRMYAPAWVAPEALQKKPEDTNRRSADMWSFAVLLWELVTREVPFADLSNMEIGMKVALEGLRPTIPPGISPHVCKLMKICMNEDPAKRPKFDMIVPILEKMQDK

[7] = target: TRAF2 and NCK-interacting protein kinase (Homo sapiens) (UniProt Q9UKE5); experiment: Inhibition of human ZC2/TNIK in HL-60 cells lysate assessed as reduction of labeling of acyl-phosphate ATP probe at 100 nM; type: cell-free
[8] = target: T4, Inhibitor of nuclear factor kappa-B kinase subunit epsilon (Homo sapiens) (UniProt Q14164); experiment: Inhibition of human IKKepsilon in HL-60 cells lysate assessed as reduction of labeling of acyl-phosphate ATP probe at 100 nM; type: cell-free
T4 sequence (whole entry): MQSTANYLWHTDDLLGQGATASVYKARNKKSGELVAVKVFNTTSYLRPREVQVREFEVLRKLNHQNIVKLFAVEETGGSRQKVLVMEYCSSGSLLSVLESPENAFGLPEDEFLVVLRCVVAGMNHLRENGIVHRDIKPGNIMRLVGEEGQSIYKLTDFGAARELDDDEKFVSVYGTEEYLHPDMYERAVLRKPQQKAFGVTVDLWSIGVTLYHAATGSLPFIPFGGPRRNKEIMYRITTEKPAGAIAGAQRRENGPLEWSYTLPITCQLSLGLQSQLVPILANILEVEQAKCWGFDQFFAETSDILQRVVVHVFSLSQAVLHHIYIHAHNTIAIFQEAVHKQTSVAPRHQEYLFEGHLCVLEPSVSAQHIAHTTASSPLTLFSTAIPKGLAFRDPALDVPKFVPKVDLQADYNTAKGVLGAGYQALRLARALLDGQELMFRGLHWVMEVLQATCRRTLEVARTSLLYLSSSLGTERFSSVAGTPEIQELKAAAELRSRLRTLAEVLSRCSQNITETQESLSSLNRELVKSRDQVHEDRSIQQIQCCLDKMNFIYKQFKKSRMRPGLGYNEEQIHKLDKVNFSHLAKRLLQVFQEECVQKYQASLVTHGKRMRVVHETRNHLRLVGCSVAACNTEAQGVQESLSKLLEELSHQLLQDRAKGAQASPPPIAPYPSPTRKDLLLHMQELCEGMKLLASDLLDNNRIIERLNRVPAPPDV

[9] = target: STE20-like serine/threonine-protein kinase SLK (Homo sapiens) (UniProt Q9H2G2); experiment: Inhibition of human SLK in HL-60 cells lysate assessed as reduction of labeling of acyl-phosphate ATP probe at 100 nM
STE20-like serine/threonine-protein kinase SLK (Homo sapiens), sequence (Q9H2G2 whole entry, looked up): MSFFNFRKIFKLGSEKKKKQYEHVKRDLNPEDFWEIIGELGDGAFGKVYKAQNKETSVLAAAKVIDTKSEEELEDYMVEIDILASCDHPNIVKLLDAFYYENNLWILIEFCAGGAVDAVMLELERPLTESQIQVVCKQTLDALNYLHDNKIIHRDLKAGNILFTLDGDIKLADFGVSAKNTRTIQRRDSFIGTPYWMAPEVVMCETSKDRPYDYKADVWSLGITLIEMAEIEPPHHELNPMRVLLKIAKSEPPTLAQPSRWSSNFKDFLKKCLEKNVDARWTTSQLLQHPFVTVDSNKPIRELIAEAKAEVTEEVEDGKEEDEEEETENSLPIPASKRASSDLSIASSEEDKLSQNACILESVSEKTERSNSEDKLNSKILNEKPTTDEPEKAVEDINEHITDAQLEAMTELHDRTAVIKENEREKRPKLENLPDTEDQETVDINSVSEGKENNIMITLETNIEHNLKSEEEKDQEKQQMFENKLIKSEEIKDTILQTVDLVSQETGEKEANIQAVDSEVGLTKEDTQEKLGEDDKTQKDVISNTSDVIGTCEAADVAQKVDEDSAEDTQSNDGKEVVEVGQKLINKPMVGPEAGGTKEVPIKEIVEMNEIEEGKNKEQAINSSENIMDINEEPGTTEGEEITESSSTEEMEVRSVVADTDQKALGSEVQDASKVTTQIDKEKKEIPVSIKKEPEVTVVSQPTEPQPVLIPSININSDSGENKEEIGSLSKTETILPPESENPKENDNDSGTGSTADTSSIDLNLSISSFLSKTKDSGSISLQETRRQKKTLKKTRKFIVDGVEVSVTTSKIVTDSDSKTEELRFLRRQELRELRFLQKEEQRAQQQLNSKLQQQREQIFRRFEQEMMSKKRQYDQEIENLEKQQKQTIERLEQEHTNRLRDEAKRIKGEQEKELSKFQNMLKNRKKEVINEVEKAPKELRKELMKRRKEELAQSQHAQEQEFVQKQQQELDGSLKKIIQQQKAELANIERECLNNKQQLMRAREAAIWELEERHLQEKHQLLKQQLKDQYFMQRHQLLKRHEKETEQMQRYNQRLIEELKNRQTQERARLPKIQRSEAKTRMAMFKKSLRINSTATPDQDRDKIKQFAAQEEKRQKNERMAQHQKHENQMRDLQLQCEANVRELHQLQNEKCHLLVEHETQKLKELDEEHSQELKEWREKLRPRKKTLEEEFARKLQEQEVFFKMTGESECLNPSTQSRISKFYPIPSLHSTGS

Mitogen-activated protein kinase 7 (Homo sapiens), sequence (Q13164 2-816 limits assumed): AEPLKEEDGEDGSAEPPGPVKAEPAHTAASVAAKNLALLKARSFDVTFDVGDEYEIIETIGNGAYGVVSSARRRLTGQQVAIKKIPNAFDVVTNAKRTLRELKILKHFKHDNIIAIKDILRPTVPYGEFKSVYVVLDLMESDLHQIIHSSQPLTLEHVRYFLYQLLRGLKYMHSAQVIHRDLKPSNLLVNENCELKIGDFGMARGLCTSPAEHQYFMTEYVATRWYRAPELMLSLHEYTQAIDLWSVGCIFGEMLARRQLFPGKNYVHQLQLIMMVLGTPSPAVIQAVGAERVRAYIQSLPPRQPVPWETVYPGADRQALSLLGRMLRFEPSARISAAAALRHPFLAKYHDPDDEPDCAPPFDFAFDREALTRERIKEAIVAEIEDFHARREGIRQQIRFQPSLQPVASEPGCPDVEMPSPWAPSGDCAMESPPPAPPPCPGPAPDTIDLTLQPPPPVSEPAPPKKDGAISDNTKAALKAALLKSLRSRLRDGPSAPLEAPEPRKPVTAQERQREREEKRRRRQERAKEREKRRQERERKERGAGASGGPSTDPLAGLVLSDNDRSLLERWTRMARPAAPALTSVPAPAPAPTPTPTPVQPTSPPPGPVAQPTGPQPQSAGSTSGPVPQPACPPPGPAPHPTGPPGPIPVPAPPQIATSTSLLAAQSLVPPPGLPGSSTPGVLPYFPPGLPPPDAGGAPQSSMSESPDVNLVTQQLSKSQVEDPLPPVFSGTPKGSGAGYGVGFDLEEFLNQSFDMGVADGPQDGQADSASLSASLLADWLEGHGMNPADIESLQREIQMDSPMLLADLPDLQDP
TRAF2 and NCK-interacting protein kinase (Homo sapiens), sequence (Q9UKE5 whole entry, looked up): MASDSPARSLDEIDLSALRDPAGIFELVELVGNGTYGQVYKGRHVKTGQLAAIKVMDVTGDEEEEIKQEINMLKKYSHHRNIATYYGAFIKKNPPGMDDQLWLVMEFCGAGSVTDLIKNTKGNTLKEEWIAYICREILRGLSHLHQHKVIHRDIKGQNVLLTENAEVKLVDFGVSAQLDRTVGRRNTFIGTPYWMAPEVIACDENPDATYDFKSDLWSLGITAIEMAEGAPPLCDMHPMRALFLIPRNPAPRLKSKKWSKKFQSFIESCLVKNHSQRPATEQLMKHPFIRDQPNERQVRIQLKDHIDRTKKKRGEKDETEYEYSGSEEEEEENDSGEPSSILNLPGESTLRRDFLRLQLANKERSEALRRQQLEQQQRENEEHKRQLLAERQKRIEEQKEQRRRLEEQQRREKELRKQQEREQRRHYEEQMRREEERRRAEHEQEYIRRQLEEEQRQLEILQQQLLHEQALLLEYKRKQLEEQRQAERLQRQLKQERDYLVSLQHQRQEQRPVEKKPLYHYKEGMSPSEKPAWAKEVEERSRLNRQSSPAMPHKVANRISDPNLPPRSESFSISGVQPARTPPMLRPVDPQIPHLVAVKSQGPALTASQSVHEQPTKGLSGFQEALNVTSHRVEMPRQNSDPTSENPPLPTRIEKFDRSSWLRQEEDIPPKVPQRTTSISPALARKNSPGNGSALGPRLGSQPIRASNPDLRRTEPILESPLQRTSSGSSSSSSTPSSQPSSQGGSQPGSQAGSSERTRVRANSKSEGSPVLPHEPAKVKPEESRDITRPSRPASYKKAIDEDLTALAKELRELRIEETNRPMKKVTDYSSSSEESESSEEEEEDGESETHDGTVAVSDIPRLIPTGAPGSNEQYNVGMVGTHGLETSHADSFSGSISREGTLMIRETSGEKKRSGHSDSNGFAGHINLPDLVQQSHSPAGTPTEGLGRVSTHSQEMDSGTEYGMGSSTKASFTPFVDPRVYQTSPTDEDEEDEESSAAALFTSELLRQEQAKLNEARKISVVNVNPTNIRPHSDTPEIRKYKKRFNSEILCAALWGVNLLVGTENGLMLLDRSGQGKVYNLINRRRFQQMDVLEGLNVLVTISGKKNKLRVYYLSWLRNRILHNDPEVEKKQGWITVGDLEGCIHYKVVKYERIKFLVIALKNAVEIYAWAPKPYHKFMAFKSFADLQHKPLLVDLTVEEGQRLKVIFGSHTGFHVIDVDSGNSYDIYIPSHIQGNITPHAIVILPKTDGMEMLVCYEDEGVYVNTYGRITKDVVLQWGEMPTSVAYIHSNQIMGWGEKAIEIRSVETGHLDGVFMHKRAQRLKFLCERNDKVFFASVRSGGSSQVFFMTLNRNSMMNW

Row | inhibition [2] [%] | inhibition [3] [%] | inhibition [5] [%] | inhibition [6] [%] | inhibition [7] [%] | inhibition [8] [%] | inhibition [9] [%] | SMILES | inhibition at 0.1 µM (HL-60 [1]) [%] | inhibition at 0.1 µM (HL-60 [4]) [%]
1 | < 35 | < 35 | < 35 | < 35 | < 35 | < 35 | < 35 | C[C@H]1COc2c(NCCCc3ccccn3)c(F)c(N)c3c(=O)c(C#N)cn1c23 | < 35 | < 35
2 | < 35 | < 35 | < 35 | < 35 | < 35 | < 35 | < 35 | C[C@H]1COc2c(NCCCn3cccn3)c(F)c(N)c3c(=O)c(C(=O)O)cn1c23 | < 35 | < 35
3 | < 35 | < 35 | < 35 | < 35 | < 35 | < 35 | < 35 | C[C@H]1COc2c(NCCCc3ccccn3)c(F)c(N)c3c(=O)c(C(=O)O)cn1c23 | < 35 | < 35
4 | < 35 | < 35 | < 35 | < 35 | < 35 | < 35 | < 35 | C[C@H]1COc2c(NCCCn3cccn3)c(F)c(N)c3c(=O)c(C#N)cn1c23 | < 35 | < 35
